From ChEMBL document CHEMBL1123995, “N-sulfonyl imidates as a novel prodrug form for an ester function or a sulfonamide group” (J Med Chem, 1988)

How the values were obtained:
Format in all cases: ADME
[1] = Half-life of hydrolysis at pH 7.4 at 37 degree C; settings: buffer
[2] = Half-life of hydrolysis at pH 6.0 at 37 degree C; settings: buffer
[3] = Half life of 80% diluted human plasma with 0.01 M phosphate buffer of pH 7.4; settings: 80% human plasma
[4] = Half-life of hydrolysis at pH 4.0 at 37 degree C; settings: buffer

Row | half-life [1] | half-life [2] | half-life [3] | half-life [4] | SMILES
1 | 1.38 h | 2.5 h | 0.135 h |  | CO/C(C)=N\S(=O)(=O)c1ccc(C)cc1
2 | 1.52 h | 1.55 h | 0.01 h |  | Cc1ccc(S(=O)(=O)/N=C(\Oc2ccccc2C(=O)OCC(=O)N(C)C)c2ccccc2)cc1
3 | 0.0133 h | 0.02 h | < 0.0167 h |  | CCO/C=N\S(=O)(=O)c1ccc(C)cc1
4 | 1.48 h | 1.5 h | 0.6 h |  | Cc1ccc(S(=O)(=O)/N=C(\OC2CCN(C)CC2)c2ccccc2)cc1.Cl
5 | 17.4 h | 23 h | 3.25 h |  | Cc1ccc(S(=O)(=O)/N=C(\OC(C)C)c2ccccc2)cc1
6 | 0.183 h |  | 0.0667 h | 0.883 h | Cc1ccc(S(=O)(=O)/N=C(\OCCCN(C)C)c2ccccc2)cc1.Cl
7 | 1.9 h |  | 0.117 h |  | CO/C(=N\S(=O)(=O)c1ccc(C)cc1)c1ccccc1
8 | 2.42 h |  | 0.533 h |  | CCC/C(=N/S(=O)(=O)c1ccc(C)cc1)OC
9 | 1.25 h |  | 0.08 h |  | Cc1ccc(S(=O)(=O)/N=C(\OCCN2CCCC2=O)c2ccccc2)cc1
10 | 2.4 h | 2.92 h | 0.107 h |  | CCO/C(C)=N\S(=O)(=O)c1ccc(C)cc1
11 | 0.045 h |  | < 0.0167 h | 0.583 h | Cc1ccc(S(=O)(=O)/N=C(\OCCN(C)C)c2ccccc2)cc1.Cl
12 | 0.0217 h |  | < 0.0167 h | 0.583 h | Cc1ccc(S(=O)(=O)/N=C(\OCCN2CCCCC2)c2ccccc2)cc1.Cl
13 | 2.92 h | 3.67 h | 0.333 h |  | CCO/C(=N\S(=O)(=O)c1ccc(C)cc1)c1ccccc1
14 | 2.67 h |  | 0.467 h |  | CCCC/C(=N/S(=O)(=O)c1ccc(C)cc1)OC
15 | 4.25 h | 14.5 h | 0.533 h |  | COC(=NS(=O)(=O)c1ccc(C)cc1)OC
16 | 26.3 h |  | 1.3 h |  | CCOC(=NS(=O)(=O)c1ccc(C)cc1)OCC
17 | 1.8 h |  | 0.4 h |  | CCO/C(CC)=N\S(=O)(=O)c1ccc(C)cc1
18 | 2.92 h |  | 0.333 h |  | CCCO/C(=N\S(=O)(=O)c1ccc(C)cc1)c1ccccc1
19 | 2.4 h |  | 0.0333 h |  | Cc1ccc(S(=O)(=O)/N=C(\OCC(=O)N(C)C)c2ccccc2)cc1
